# According to PubChem BioAssay AID248 (DTP/NCI, 2004):
# “And” between values parts separate entries of the source, which are not always exact repeats. Identical values can stand only once. Inconclusive results and toxic doses are left out.
# System: L1210 leukemia ip in BDF1 mice, survival T/C
# Experiment: NCI In Vivo Anticancer Drug Screen. Data for tumor model L1210 Leukemia (intraperitoneal) in B6D2F1 (BDF1) mice
# Conditions: endpoint: mean survival time, higher = longer survival
# How it was run: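 Ratio derived from survival: compound-dosed mice over vehicle-dosed mice, all bearing a transplantable tumor.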
# [1] = dose: 25.0 mg/kg/injection, schedule: Q01DX009 (ip), vehicle: saline
# [2] = dose: 50.0 mg/kg/injection, schedule: Q01DX001 (ip), vehicle: saline
# [3] = dose: 100.0 mg/kg/injection, schedule: Q01DX001 (ip), vehicle: saline
# [4] = dose: 100.0 mg/kg/injection, schedule: Q04DX003 (ip), vehicle: Klucel (hydroxypropylcellulose) (HPC)
# [5] = dose: 200.0 mg/kg/injection, schedule: Q01DX001 (ip), vehicle: saline
# [6] = dose: 200.0 mg/kg/injection, schedule: Q04DX003 (ip), vehicle: Klucel (hydroxypropylcellulose) (HPC)
# [7] = dose: 400.0 mg/kg/injection, schedule: Q04DX003 (ip), vehicle: Klucel (hydroxypropylcellulose) (HPC)
# [8] = dose: 400.0 mg/kg/injection, schedule: Q01DX001 (ip), vehicle: saline
# [9] = dose: 100.0 mg/kg/injection, schedule: Q04DX003 (ip), vehicle: saline with Tween-80
# [10] = dose: 200.0 mg/kg/injection, schedule: Q04DX003 (ip), vehicle: saline with Tween-80
# [11] = dose: 400.0 mg/kg/injection, schedule: Q04DX003 (ip), vehicle: saline with Tween-80
# [12] = dose: 100.0 mg/kg/injection, schedule: Q01DX009 (ip), vehicle: saline with Tween-80
# [13] = dose: 200.0 mg/kg/injection, schedule: Q01DX009 (ip), vehicle: saline with Tween-80
# [14] = dose: 400.0 mg/kg/injection, schedule: Q01DX009 (ip), vehicle: saline with Tween-80
# [15] = dose: 50.0 mg/kg/injection, schedule: Q01DX009 (ip), vehicle: saline
# [16] = dose: 100.0 mg/kg/injection, schedule: Q01DX009 (ip), vehicle: saline
# [17] = dose: 200.0 mg/kg/injection, schedule: Q01DX009 (ip), vehicle: saline
# [18] = dose: 400.0 mg/kg/injection, schedule: Q01DX009 (ip), vehicle: saline
smiles,measurement,setting,value
Cc1c2ccccc2c(CSC(=N)N)c2ccccc12,T/C,"dose: 4.0 mg/kg/injection, schedule: Q01DX009 (ip), vehicle: saline sonified",119 % of control
same,T/C,"dose: 4.0 mg/kg/injection, schedule: Q01DX009 (ip), vehicle: saline with Tween-80",112 % of control
same,T/C,"dose: 4.0 mg/kg/injection, schedule: Q01DX009 (ip), vehicle: saline",120 % of control
same,T/C,"dose: 6.25 mg/kg/injection, schedule: Q01DX009 (ip), vehicle: saline",109 % of control
same,T/C,"dose: 6.25 mg/kg/injection, schedule: Q04DX003 (ip), vehicle: saline",98 % of control
same,T/C,"dose: 8.0 mg/kg/injection, schedule: Q01DX009 (ip), vehicle: saline sonified",117 % of control
same,T/C,"dose: 8.0 mg/kg/injection, schedule: Q01DX009 (ip), vehicle: saline with Tween-80",119 % of control
same,T/C,"dose: 12.5 mg/kg/injection, schedule: Q01DX009 (ip), vehicle: saline sonified",150 % of control
same,T/C,"dose: 12.5 mg/kg/injection, schedule: Q01DX009 (ip), vehicle: saline with Tween-80",108 % of control
same,T/C,"dose: 12.5 mg/kg/injection, schedule: Q01DX009 (ip), vehicle: saline",123 % of control
same,T/C,"dose: 12.5 mg/kg/injection, schedule: Q04DX003 (ip), vehicle: saline",108 % of control
same,T/C,"dose: 18.75 mg/kg/injection, schedule: Q01DX009 (ip), vehicle: saline sonified",95 % of control
same,T/C,"dose: 18.75 mg/kg/injection, schedule: Q01DX009 (ip), vehicle: saline with Tween-80",87 % of control
same,T/C,[1],93 % of control
same,T/C,"dose: 25.0 mg/kg/injection, schedule: Q04DX003 (ip), vehicle: saline",114 % of control and 118 % of control
Cc1n[nH]c(=S)nc1C,T/C,[2],96 % of control
same,T/C,"dose: 50.0 mg/kg/injection, schedule: Q04DX003 (ip), vehicle: Klucel (hydroxypropylcellulose) (HPC)",96 % of control
same,T/C,[3],102 % of control
same,T/C,[4],96 % of control
same,T/C,[5],93 % of control
same,T/C,[6],91 % of control
Cc1ccc(NCc2ccc(N(C)C)cc2)cc1,T/C,[4],99 % of control
same,T/C,[6],91 % of control
same,T/C,[7],93 % of control
Cc1ccc(C(=O)C(F)(F)C(F)(F)C(F)(F)C(F)(F)C(F)(F)C(F)(F)C(F)(F)F)cc1,T/C,[3],105 % of control
same,T/C,"dose: 100.0 mg/kg/injection, schedule: Q04DX003 (ip), vehicle: saline",93 % of control
same,T/C,[5],102 % of control
same,T/C,"dose: 200.0 mg/kg/injection, schedule: Q04DX003 (ip), vehicle: saline",95 % of control
same,T/C,[8],103 % of control
same,T/C,"dose: 400.0 mg/kg/injection, schedule: Q04DX003 (ip), vehicle: saline",92 % of control
c1cc2c(c(NC3=NCCCS3)c1)CCCC2,T/C,"dose: 100.0 mg/kg/injection, schedule: Q01DX009 (ip), vehicle: Klucel (hydroxypropylcellulose) (HPC)",102 % of control
same,T/C,[4],97 % of control
same,T/C,"dose: 200.0 mg/kg/injection, schedule: Q01DX009 (ip), vehicle: Klucel (hydroxypropylcellulose) (HPC)",96 % of control
same,T/C,[6],95 % of control
same,T/C,[7],90 % of control
COC(=O)C(Cc1ccc(N(CCCl)CCCl)cc1)N=NNc1[nH]ncc1C(N)=O (stereo unspecified),T/C,"dose: 19.0 mg/kg/injection, schedule: Q01DX001 (ip), vehicle: other",106 % of control
same,T/C,"dose: 38.0 mg/kg/injection, schedule: Q01DX001 (ip), vehicle: other",124 % of control
same,T/C,"dose: 75.0 mg/kg/injection, schedule: Q01DX001 (ip), vehicle: other",100 % of control
same,T/C,"dose: 150.0 mg/kg/injection, schedule: Q01DX001 (ip), vehicle: other",155 % of control
same,T/C,"dose: 300.0 mg/kg/injection, schedule: Q01DX001 (ip), vehicle: other",117 % of control
C=C1C(=O)O[C@@H]2CC(C)=C3CC[C@@](C)(O)[C@@H]3C[C@H]12,T/C,"dose: 75.0 mg/kg/injection, schedule: Q04DX003 (ip), vehicle: Klucel (hydroxypropylcellulose) (HPC)",106 % of control
same,T/C,"dose: 150.0 mg/kg/injection, schedule: Q04DX003 (ip), vehicle: Klucel (hydroxypropylcellulose) (HPC)",102 % of control
same,T/C,"dose: 300.0 mg/kg/injection, schedule: Q04DX003 (ip), vehicle: Klucel (hydroxypropylcellulose) (HPC)",98 % of control
same,T/C,"dose: 600.0 mg/kg/injection, schedule: Q04DX003 (ip), vehicle: Klucel (hydroxypropylcellulose) (HPC)",94 % of control
COc1ccc(-n2c(=O)c(N=Nc3ccccc3)c(O)n(-c3ccc(I)cc3)c2=S)cc1,T/C,[9],97 % of control
same,T/C,[10],100 % of control
same,T/C,[11],116 % of control
CCCCCCCCc1nc2c([nH]1)c(=O)n(C)c(=O)n2C,T/C,[2],87 % of control
same,T/C,[3],90 % of control
same,T/C,[5],90 % of control
same,T/C,[8],102 % of control
O=[N+]([O-])c1cccc(CO)c1-c1c(CO)cccc1[N+](=O)[O-],T/C,[12],101 % of control
same,T/C,[13],102 % of control
same,T/C,[14],101 % of control
CC(=O)c1ccccc1OCC(O)CN1CCN(c2ccccc2Cl)CC1 (stereo unspecified),T/C,"dose: 37.5 mg/kg/injection, schedule: Q01DX009 (ip), vehicle: saline with Tween-80",97 % of control
same,T/C,"dose: 37.5 mg/kg/injection, schedule: Q04DX003 (ip), vehicle: saline with Tween-80",105 % of control
same,T/C,"dose: 75.0 mg/kg/injection, schedule: Q01DX009 (ip), vehicle: saline with Tween-80",89 % of control
same,T/C,"dose: 75.0 mg/kg/injection, schedule: Q04DX003 (ip), vehicle: saline with Tween-80",108 % of control
same,T/C,"dose: 150.0 mg/kg/injection, schedule: Q01DX009 (ip), vehicle: saline with Tween-80",93 % of control
same,T/C,"dose: 150.0 mg/kg/injection, schedule: Q04DX003 (ip), vehicle: saline with Tween-80",94 % of control
Cc1ccc(SC(=O)CCl)cc1,T/C,"dose: 66.0 mg/kg/injection, schedule: Q01DX009 (ip), vehicle: gum acacia",93 % of control
same,T/C,"dose: 100.0 mg/kg/injection, schedule: Q01DX009 (ip), vehicle: gum acacia",90 % of control
same,T/C,"dose: 100.0 mg/kg/injection, schedule: Q04DX003 (ip), vehicle: gum acacia",102 % of control
same,T/C,"dose: 150.0 mg/kg/injection, schedule: Q01DX009 (ip), vehicle: gum acacia",90 % of control
same,T/C,"dose: 200.0 mg/kg/injection, schedule: Q01DX009 (ip), vehicle: gum acacia",97 % of control
same,T/C,"dose: 200.0 mg/kg/injection, schedule: Q04DX003 (ip), vehicle: gum acacia",96 % of control
same,T/C,"dose: 400.0 mg/kg/injection, schedule: Q04DX003 (ip), vehicle: gum acacia",94 % of control
Cc1ccc(N=Nc2ccc(C)cc2NC(=O)c2ccc(Cl)cc2)cc1,T/C,"dose: 50.0 mg/kg/injection, schedule: Q01DX001 (ip), vehicle: saline with Tween-80",100 % of control
same,T/C,"dose: 50.0 mg/kg/injection, schedule: Q04DX003 (ip), vehicle: saline with Tween-80",90 % of control
same,T/C,"dose: 100.0 mg/kg/injection, schedule: Q01DX001 (ip), vehicle: saline with Tween-80",90 % of control
same,T/C,[12],93 % of control and 94 % of control
same,T/C,"dose: 100.0 mg/kg/injection, schedule: Q04DX002 (ip), vehicle: saline with Tween-80",94 % of control and 90 % of control
same,T/C,[9],93 % of control
same,T/C,[13],95 % of control and 97 % of control
same,T/C,"dose: 200.0 mg/kg/injection, schedule: Q04DX002 (ip), vehicle: saline with Tween-80",93 % of control and 91 % of control
same,T/C,[10],93 % of control
same,T/C,[14],90 % of control and 92 % of control
same,T/C,"dose: 400.0 mg/kg/injection, schedule: Q04DX002 (ip), vehicle: saline with Tween-80",87 % of control and 89 % of control
same,T/C,[11],89 % of control and 90 % of control
CC(=O)/C=C/c1ccc2c(c1)OCO2,T/C,[1],105 % of control
same,T/C,[15],96 % of control
same,T/C,[16],110 % of control
same,T/C,[17],94 % of control
same,T/C,[18],102 % of control
COC(=O)c1ccc(C)nc1OC/C=C(\C)CCC=C(C)C,T/C,[3],104 % of control
same,T/C,[16],110 % of control
same,T/C,[5],99 % of control
same,T/C,[17],102 % of control
same,T/C,[8],90 % of control
same,T/C,[18],106 % of control
O=C(COc1ccc(Cl)c(Cl)c1)Nc1ccc[n+](Cc2ccc(S(=O)(=O)F)c(Cl)c2)c1,T/C,[4],98 % of control
same,T/C,[6],93 % of control
same,T/C,[7],97 % of control
CC1(C)N=C(N)N=C(N)N1c1ccc(OCCNC(=O)Nc2ccc(S(=O)(=O)F)cc2)c(Cl)c1,T/C,[1],102 % of control
same,T/C,[15],105 % of control
same,T/C,[16],113 % of control
